Test results taken from patent US11672804B1, “Pharmaceutical composition containing palbociclib and letrozole” (EGIS Gyógyszergyár Zrt., priority 2022, dated 2023).

Assays:
[1] = Compatibility tests of components, 1 month; assay type: physicochemical; conditions: for degradation of letrozole caused by PTSA: 1 months
Protocol: The compatibility test was performed at room temperature (25° C.), 40° C. under 75% RH and 50° C., for 1 months with the various components tested in proportion to the intended composition.

[2] = pH dependence; cited from earlier work

degradation of palbociclib base by PTSA ([1]; 25° C., 40° C. and 50° C., one month) | degradation of letrozole caused by PTSA ([1]; 25° C.) | degradation of letrozole caused by PTSA ([1]; 40° C.) | degradation of letrozole caused by PTSA ([1]; 50° C.) | Compound | solubility [2]
did not induce degradation |  |  |  | CC(=O)c1c(C)c2cnc(Nc3ccc(N4CCNCC4)cn3)nc2n(C2CCCC2)c1=O [palbociclib base, Palbociclib] | soluble only in a strongly acidic medium
 | 5% | 12% | 15% | N#Cc1ccc(C(c2ccc(C#N)cc2)n2cncn2)cc1 [letrozole, Letrozole] | 
